From patent US20220326218A1, “COMPOSITION AND METHOD FOR INHIBITING BORC COMPLEX TO TREAT CANCERS WITH NF1 DEFICIENCY AND DYSREGULATED RAS SIGNALING” (THE TRUSTEES OF DARTMOUTH COLLEGE, priority 2019, published 2022)

Key:
Type in all cases: cell-based, human
U251-MG cells = assay: alamarBlue assay, U251-MG; settings: up to 3 days, 20 μM to 0.039 μM
Experimental: Cells were plated at 5,000 cells/well in 96-well plates and allowed to adhere overnight. […] Cells were incubated for 72 h. 3 h prior to end of incubation, alamarBlue (Invitrogen) was added to a final concentration of 5% v/v. Fluorescence was read using a Spectramax M2 at an excitation of 544 nm and an emission of 590 nm, and fluorescence was normalized to DMSO. Each experiment contains 4 technical replicates.

U87-MG cells = assay: β-Galactosidase senescence assay; settings: 2 μM, 72 h
Experimental: U87-MG cells were plated at 100,000 cells/well and allowed to adhere overnight. Medium was removed and replaced with medium containing DMSO, 2 μM Y102, or 100 nM Doxorubicin for a total of 72 hours. Cells were collected and stained for β-galactosidase using the Senescence β-Galactosidase Staining Kit (Cell Signaling). 100 cells were counted per condition; graph represents results from triplicate experiments.

LC3-II = assay: Western immunoblotting of autophagy marker LC3-I/II; settings: U87-MG, 12 h treatment +/- 12 h HCQ co-treatment, total 24 h
Experimental: (§1) U87-MG cells were plated at 500,000 cells/well in 6-well plates and allowed to adhere overnight (Falcon). Medium was removed and replaced with fresh medium containing drugs or compounds for the indicated timepoints. Cells were collected after treatment by washing with PBS, harvested with trypsin plus agitation to detach cells, pelleted in a centrifuge and resuspended in PBS to wash. Cells were transferred to 1.5 mL microcentrifuge tubes, pelleted, and resuspended in RIPA lysis buffer (50 mM Tris pH 8.0, 150 mM NaCl, 1% nonidet P40, 0.5% sodium deoxycholate, and 0.05% SDS) containing 1 mM NaVO4, 1 mM NaF, 1 mM phenylmethylsulfonyl fluoride, 0.1 μg/mL antipain, 1 μM aprotinin, 100 μM benzamidine HCl, 0.1 μg/mL leupeptin, 0.1 μg/mL pepstatin, and 0.1 μg/mL soybean trypsin inhibitor. Protein was quantified using a BCA assay kit (Pierce). 50 μg of protein was prepared in 1× Laemmli sample buffer (50 mM Tris pH 6.8, 0.02% w/v bromophenol blue, 2% w/v SDS, 10% v/v glycerol, 1% v/v beta-mercaptoethanol, 12.5 mM EDTA) and separated by SDS-PAGE on a 4-15% polyacrylamide gradient gel (Bio-Rad). […]

sequestosome-1 (p62) = assay: Immunofluorescence staining for p62; settings: U87-MG, 24 h; 2 μM Y102, 50 μM HCQ; HCQ and Y102 compared with each other
Experimental: (§2) U87-MG cells were plated at a concentration of 50,000 cells/well onto precoated poly-D-lysine (PDL) coverslips (Neuvitro) in 24-well plates (Falcon) and allowed to adhere overnight. Medium was removed and replaced with treatment-laced media normalized to DMSO, and cells were treated for the indicated timepoints. At the time of collection, cells were washed with PBS and fixed with 4% paraformaldehyde without methanol (EMS) or 100% methanol (Fischer). Coverslips were washed with Tween20-containing PBS (PBST; Fischer). Following permeabilization with 0.5% Triton X-100 in PBS (Fischer), coverslips were blocked for 1 h at room temperature in IF Buffer (0.05% azide, 0.2% Triton X-100, 2% Normal Goat Serum or, for 8-OHG, Normal Donkey Serum). The following primary antibodies were used for 1 hour at room temperature unless specified: AlexaFluor 488 pre-conjugated anti-γ-H2AX (N1-431) mouse monoclonal (30 minutes; BD Biosciences), anti-cleaved caspase 3 (Asp175) rabbit polyclonal (Cell Signaling), anti-SQSTM1/p62 (D-3) mouse monoclonal (Santa Cruz), anti-8-Hydroxyguanosine goat polyclonal (1:200; Millipore), anti-LAMP1 (D4O1S) mouse monoclonal (O/N at 4° C.; Cell Signaling), anti-BNIP3L/Nix (D4R4B) rabbit monoclonal (O/N at 4° C.; Cell Signaling), anti-FLAG (M2) mouse monoclonal (2 hours at 37° C.; Sigma-Aldrich). […]

BNIP3L/Nix = assay: Immunofluorescence staining for mitophagy receptor BNIP3L/Nix; settings: U87-MG, 24 h; 2 μM Y102, 100 μM CoCl2; CoCl2 and Y102 compared with each other
Experimental: as §2

PARP = assay: Western immunoblotting for PARP; settings: U87-MG
Experimental: as §1

p62 = assay: Western immunoblotting of autophagy marker p62; settings: U87-MG, 12 h treatment +/- 12 h HCQ
Experimental: as §1

Cn1cnnc1S/C=C/C(=O)c1ccc(F)cc1 [Y102]
sensitivity of NF1-deficient cell line to treatment (U251-MG cells): sensitive
senescence (senescence-associated β-galactosidase) (U87-MG cells): no indication
LC3-II accumulation (western immunoblotting) (LC3-II): did not result in LC3-II accumulation
p62 expression compared to DMSO (immunofluorescence) (sequestosome-1 (p62)): increased
expression/localization of BNIP3L/Nix on the mitochondria compared to DMSO control (BNIP3L/Nix): increase
PARP western immunoblotting as check of absent caspase-3-mediated apoptosis (PARP): confirmed
p62 expression (western immunoblotting) (p62): increased
